This is an account of results in ChEMBL document CHEMBL1159029, “An Epoxydon-Derived Ester from a Phoma sp. Pathogenic to Rhubarb” (1992).

The subject of experiment [1] is Sorghum bicolor. Put plainly: Phytotoxicity against Sorghum bicolor assessed as brownish-black necrotic lesion area at 50 ug within 48 hrs by detached leaf assay. It is filed as functional.
Experiment [2] concerns Rheum rhabarbarum. In words: Phytotoxicity against Rhubarb assessed as brownish-black necrotic lesion area at 50 ug up to 48 hrs by detached leaf assay. It is filed as functional.
Experiment [3] has as its system Sida spinosa. In words: Phytotoxicity against Sida spinosa assessed as brownish-black necrotic lesion area at 50 ug within 48 hrs by detached leaf assay. Type of experiment: functional.
Experiment [4] concerns Ipomoea. Put plainly: Phytotoxicity against Ipomoea sp. assessed as brownish-black necrotic lesion area at 50 ug within 48 hrs by detached leaf assay. Type of experiment: functional.
The subject of experiment [5] is Datura stramonium. In words: Phytotoxicity against Datura stramonium assessed as brownish-black necrotic lesion area at 50 ug within 48 hrs by detached leaf assay. It is filed as functional.
The test system of experiment [6] is Sorghum halepense. Put plainly: Phytotoxicity against Sorghum halepense assessed as brownish-black necrotic lesion area at 50 ug within 48 hrs by detached leaf assay. Type of experiment: functional.
For experiment [7], the system named is Senna obtusifolia. Put plainly: Phytotoxicity against Senna obtusifolia assessed as brownish-black necrotic lesion area at 50 ug within 48 hrs by detached leaf assay. Type of experiment: functional.
Experiment [8] has as its system Chenopodium album. In words: Phytotoxicity against Chenopodium album assessed as brownish-black necrotic lesion area at 50 ug within 48 hrs by detached leaf assay. It is filed as functional.
In experiment [9] the test system is Escherichia coli. In words: Antimicrobial activity against Escherichia coli DH 5alpha at 0.5 mg/disk by disk assay. Type of experiment: functional.
The subject of experiment [10] is Escherichia coli. Put plainly: Antimicrobial activity against Escherichia coli DH 5alpha at 0.25 mg/disk by disk assay. Type of experiment: functional.
In experiment [11] the test system is Agrobacterium tumefaciens. Put plainly: Antimicrobial activity against Agrobacterium tumefaciens C-58 at 0.5 mg/disk by disk assay. Type of experiment: functional.
In experiment [12] the test system is Agrobacterium tumefaciens. Put plainly: Antimicrobial activity against Agrobacterium tumefaciens C-58 at 0.25 mg/disk by disk assay. Type of experiment: functional.
Experiment [13] relates to Curtobacterium flaccumfaciens. In words: Antimicrobial activity against Corynebacterium flaccumfaciens CF-20 at 0.5 mg/disk by disk assay. It is filed as functional.
The test system of experiment [14] is Curtobacterium flaccumfaciens. Put plainly: Antimicrobial activity against Corynebacterium flaccumfaciens CF-20 at 0.25 mg/disk by disk assay. Type of experiment: functional.
Experiment [15] has as its system Pectobacterium carotovorum. Put plainly: Antimicrobial activity against Erwinia carotovora EC-14 at 0.5 mg/disk by disk assay. Type of experiment: functional.
Experiment [16] relates to Pectobacterium carotovorum. Put plainly: Antimicrobial activity against Erwinia carotovora EC-14 at 0.25 mg/disk by disk assay. Type of experiment: functional.
In experiment [17] the test system is Aspergillus flavus. Put plainly: Antimicrobial activity against Aspergillus flavus AF3357 at 0.5 mg/disk by disk assay. It is filed as functional, AF-3357.
Experiment [18] has as its system Aspergillus flavus. Put plainly: Antimicrobial activity against Aspergillus flavus AF3357 at 0.25 mg/disk by disk assay. Type of experiment: functional, AF-3357.
Experiment [19] relates to Penicillium chrysogenum. Put plainly: Antimicrobial activity against Penicillium notatum AT-9479 at 0.5 mg/disk by disk assay. It is filed as functional.
In experiment [20] the test system is Penicillium chrysogenum. Put plainly: Antimicrobial activity against Penicillium notatum AT-9479 at 0.25 mg/disk by disk assay. It is filed as functional.
Experiment [21] concerns Colletotrichum acutatum. Put plainly: Antimicrobial activity against Colletotrichum acutatum NC 1618 at 0.5 mg/disk by disk assay. It is filed as functional.
Experiment [22] deals with Colletotrichum acutatum. Put plainly: Antimicrobial activity against Colletotrichum acutatum NC 1618 at 0.25 mg/disk by disk assay. It is filed as functional.
Experiment [23] deals with Nasturtium officinale. Put plainly: Phytotoxicity against Nasturtium officinale assessed as brownish-black necrotic lesions area at 50 ug within 48 hrs by detached leaf assay. It is filed as functional.
The test system of experiment [24] is Phoma. In words: Antimicrobial activity against Phoma sp. at 0.5 mg/disk by disk assay. Type of experiment: functional.
Experiment [25] has as its system Escherichia coli. Put plainly: Antimicrobial activity against Escherichia coli DH 5alpha at 1 mg/disk by disk assay. It is filed as functional.
For experiment [26], the system named is Agrobacterium tumefaciens. In words: Antimicrobial activity against Agrobacterium tumefaciens C-58 at 1 mg/disk by disk assay. Type of experiment: functional.
Experiment [27] relates to Curtobacterium flaccumfaciens. In words: Antimicrobial activity against Corynebacterium flaccumfaciens CF-20 at 1 mg/disk by disk assay. Type of experiment: functional.
The test system of experiment [28] is Pectobacterium carotovorum. Put plainly: Antimicrobial activity against Erwinia carotovora EC-14 at 1 mg/disk by disk assay. It is filed as functional.
Experiment [29] relates to Aspergillus flavus. In words: Antimicrobial activity against Aspergillus flavus AF3357 at 1 mg/disk by disk assay. Type of experiment: functional, AF-3357.
The subject of experiment [30] is Penicillium chrysogenum. Put plainly: Antimicrobial activity against Penicillium notatum AT-9479 at 1 mg/disk by disk assay. It is filed as functional.
The test system of experiment [31] is Colletotrichum acutatum. In words: Antimicrobial activity against Colletotrichum acutatum NC 1618 at 1 mg/disk by disk assay. Type of experiment: functional.

In the case of `O=C1C(CO)=C[C@@H](O)[C@H]2O[C@@H]12` [EPOXYDON], the Activity was found to be 31 mm2 in [1]; 27 mm2 in [2]; 25 mm2 in [3]; 51 mm2 in experiment [4]; 31 mm2 in [5]; 37 mm2 in experiment [6]. In addition, the Activity worked out at 17 mm2 in [7], 62 mm2 in experiment [8] and 41 mm2 in [23]. The “Diameter of inhibition zone” value in [9] is reported as 25.3 mm; in experiment [10] it was 18 mm; in experiment [11], 12 mm; in [12], 10 mm; in experiment [13] it was 20 mm; in [14] it was 12 mm. Besides, the “Diameter of inhibition zone” value is reported as 17 mm in experiment [15]; 9 mm in [16]; 8 mm in [17]; 0 mm in experiment [18]; 10 mm in experiment [19]; 0 mm in experiment [20]. Moreover, the “Diameter of inhibition zone” value came out at 12 mm in experiment [21] and 10 mm in experiment [22].
As for `CC1=C[C@@H](O)[C@H]2O[C@H]2C1=O` [DESOXYEPOXYDON], the Activity in experiment [1] is reported as 69 mm2; in [2], 42 mm2; in experiment [3] it was 74 mm2; in [4], 64 mm2; in experiment [5], 73 mm2; in [6] it was 30 mm2. Besides, the Activity was 51 mm2 in experiment [7], 57 mm2 in experiment [8] and 34 mm2 in experiment [23]. Also, the “Diameter of inhibition zone” value in experiment [9] is 44 mm; in experiment [10] it was 35 mm; in [11] it was 56 mm; in experiment [12], 43 mm; in [13], 49 mm; in experiment [14], 38 mm. The “Diameter of inhibition zone” value in experiment [15] is 45 mm; in experiment [16], 31 mm; in [17], 22 mm; in experiment [18] it was 15 mm; in experiment [19] it was 27 mm; in experiment [20], 15 mm. Further, the figures for the “Diameter of inhibition zone” value in experiment [21], in experiment [22] and in experiment [24] were 60 mm, 40 mm and 30 mm, respectively.
On to `Cc1cccc(O)c1C(=O)O[C@@H]1C(=O)C(CO)=C[C@@H](O)[C@H]1O`, for which the Activity is reported as 41 mm2 in experiment [1]; 18 mm2 in experiment [2]; 24 mm2 in experiment [3]; 21 mm2 in [4]; 9 mm2 in [5]; 7 mm2 in [6]. For the same molecule, the Activity is given as 33 mm2 in experiment [7], 13 mm2 in experiment [8] and 44 mm2 in experiment [23].
Regarding `Cc1cccc(O)c1C(=O)O`, the Activity in [1] is 37 mm2; in [2] it was 55 mm2; in experiment [3], 23 mm2; in experiment [4], 15 mm2; in [5], 48 mm2; in [6], 15 mm2. Moreover, the Activity is 11 mm2 in experiment [7], 27 mm2 in experiment [8] and 17 mm2 in experiment [23]. The “Diameter of inhibition zone” value in experiment [9] worked out at 0 mm; in [25], 0 mm; in experiment [11] it was 18 mm; in [26], 25 mm; in [13], 16 mm; in [27] it was 21 mm. The “Diameter of inhibition zone” value in experiment [15] is 0 mm; in [28], 0 mm; in experiment [17] it was 10 mm; in experiment [29], 17 mm; in [19], 12 mm; in [30] it was 18 mm. The “Diameter of inhibition zone” value in [21] is recorded as 8 mm; in experiment [31], 22 mm; in experiment [24], 16 mm.
